Experimental findings from US8691286B2, “Sputum dissolving suctioning solution for endotracheal and tracheostomy tubes” (Teleflex Medical Incorporated, priority 2009, dated 2014) are described below.

This test can be described thus: Effective concentration of glycerol (Example 2; sputum dried 4 hours, 15 minutes incubation in third cycle). Also noted: species or system Human. To be noted: glycerol and dextran sulfate combination in 0.85% NaCl.

Protocol: Test solutions containing different concentrations of glycerol and dextran sulfate (w/v) were prepared in 0.85% normal saline. All steps were performed at 37° C. unless specified otherwise. Each well of a 48 well microtitre plate was pre-wetted with a test solution for 2 hours. Human sputum (20 μl) was then allowed to dry for 2 hours on the pre-wetted surface, followed by incubation with 100 μl of the test solution for 15 minutes to dissolve the dried sputum, and subsequent removal of the solution. The complete cycle of sputum drying, incubation with the test solution and removal, was repeated three times. In the third and final cycle, the dried sputum was incubated with the test solution overnight instead of 15 minutes. Visual observations were recorded at each cycle and pictures were taken under a microscope.
Sputum was dried for 4 hours instead of 2 hours in each cycle, and in the third cycle dried sputum was incubated with the test solution for only 15 minutes instead of an overnight incubation.
All the test solutions contained 0.85% of NaCl.

As to `OCC(O)CO` [glycerol], the “Most effective concentration range” value was 30-50%.

Consider dextran sulfate, for which the “Most effective concentration range” value is recorded as 10-20%.
